Target: T1, human CXCR3 (N-delta 4) (Homo sapiens, UniProt P49682)
T1 construct: CD8 leader (N); Flag; expressed in transfected cells; membranes prepared
T1 sequence (P49682 5-368 limits assumed): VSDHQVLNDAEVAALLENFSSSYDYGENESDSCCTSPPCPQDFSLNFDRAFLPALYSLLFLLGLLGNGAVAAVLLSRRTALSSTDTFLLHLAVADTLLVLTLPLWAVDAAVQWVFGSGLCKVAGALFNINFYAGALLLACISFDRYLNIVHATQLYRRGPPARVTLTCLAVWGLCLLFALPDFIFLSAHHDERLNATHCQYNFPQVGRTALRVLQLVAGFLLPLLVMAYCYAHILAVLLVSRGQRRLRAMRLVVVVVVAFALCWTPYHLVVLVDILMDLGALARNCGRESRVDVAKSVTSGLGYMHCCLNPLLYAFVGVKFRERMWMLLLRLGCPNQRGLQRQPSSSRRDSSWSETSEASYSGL
Assay: Human CXCR3 (N-delta 4) Scintillation Proximity Assay (SPA), [125I] IP-10 binding to Ba/F3-hCXCR3 membranes
Conditions: IC50 rating, Table 1; read-out: IC50

Row | SMILES | IC50 [nM]
1 | CC[C@H]1CN(c2nc(N)c(C(N)=O)nc2Cl)CCN1C1CCN(Cc2ccc(Cl)cc2CCNC(N)=O)CC1 [compound 34] | 25 to 100
2 | CC[C@H]1CN(c2nc(N)c(C(=O)NCCO)nc2Cl)CCN1C1CCN(Cc2cc(F)c(Cl)cc2OCCNS(C)(=O)=O)CC1 [compound 165] | < 25
3 | CC[C@H]1CN(c2nc(N)c(C(=O)NCCNS(N)(=O)=O)nc2Cl)CCN1C1CCN(C(CO)c2ccc(Cl)cc2)CC1 (stereo partly drawn) [compound 259] | < 25
4 | CC[C@H]1CN(c2nc(N)c(C(=O)NCCNS(C)(=O)=O)nc2Cl)CCN1C1CCN(Cc2ccc(Cl)cc2C(=N)NC)CC1 [compound 254] | 25 to 100
5 | CC[C@H]1CN(c2nc(N)c(C(=O)NCCO)nc2Cl)CCN1C1CCN(Cc2ccc(Cl)cc2N2CC[C@@H](O)C2)CC1 [compound 141] | < 25
6 | CC[C@H]1CN(c2nc(N)c(C(=O)NC3CC3)nc2Cl)CCN1C1CCN(Cc2ccc(C#N)cc2OCC(=O)NC2CC2)CC1 [compound 92] | < 25
7 | CC[C@H]1CN(c2nc(N)c(C(=O)NCCOCCO)nc2Cl)CCN1C1CCN(C(=O)c2ccc(Cl)cc2)CC1 [compound 327] | > 100
8 | CC[C@H]1CN(c2nc(N)c(C(=O)OC)nc2Cl)CCN1C1CCN(Cc2ccc(C#N)cc2OCCO)CC1 [compound 307] | > 100
9 | CC[C@H]1CN(c2ncc(C(=O)NC3CC3)nc2C)CCN1C1CCN(C(=O)c2ccc(F)c(F)c2)CC1 [compound 461] | < 25
10 | CC[C@H]1CN(c2nc(N)c(C(=O)NCCNS(=O)(=O)C(F)(F)F)nc2Cl)CCN1C1CCN(Cc2ccc(C#N)cc2)CC1 [compound 239] | < 25
11 | CC[C@H]1CN(c2nc(N)c(C(=O)NCCO)nc2Cl)CCN1C1CCN(Cc2ccc(C#N)cc2OCCN2CCCC2=O)CC1 [compound 193] | > 100
12 | CC[C@H]1CN(c2nc(N)c(C(N)=O)nc2Cl)CCN1C1CCN([C@@H](C(=O)O)c2ccc(Cl)cc2)CC1 [compound 40] | 25 to 100
13 | CC[C@H]1CN(c2nc(N)c(C(=O)NC[C@H](C)O)nc2Cl)CCN1C1CCN(C(=O)c2ccc(Cl)cc2)CC1 [compound 319] | 25 to 100
14 | CC[C@H]1CN(c2ncc(C(N)=O)nc2Cl)CCN1C1CCN(Cc2ccc(Cl)cc2[C@@H](O)C(N)=O)CC1 [compound 286] | < 25
15 | CC[C@H]1CN(c2ncc(C(N)=O)nc2C)CCN1C1CCN([C@@H](CO)c2ccc(Cl)cc2)CC1 [compound 443] | < 25
16 | CC[C@H]1CN(c2nc(N)c(C(=O)NCCO)nc2Cl)CCN1C1CCN(Cc2ccc(F)c(F)c2N2CC[C@H](O)C2)CC1 [compound 172] | < 25
17 | CC[C@H]1CN(c2nc(N)c(C(=O)NCCO)nc2Cl)CCN1C1CCN(Cc2ccc(OC)cc2)CC1 [compound 126] | < 25
18 | CC[C@H]1CN(c2ncc(C(N)=O)nc2NC)CCN1C1CCN(C(=O)c2ccc(Cl)cc2)CC1 [compound 383] | > 100

Source: patent US7868005B2, “Pyrazinyl substituted piperazine-piperidines with CXCR3 antagonist activity” (Schering Corporation, priority 2005, dated 2011)
